Two molecules from ChEMBL document CHEMBL1133847, “Fipronil-based photoaffinity probe for Drosophila and human beta 3 GABA receptors” (Bioorg Med Chem Lett, 2001) can be followed below.

In general, IC50 refers to the midpoint of a concentration-inhibition curve.

The assay addresses T1, Gamma-aminobutyric acid receptor subunit beta-3 (Homo sapiens, UniProt P28472).
T1 sequence (P28472 whole entry): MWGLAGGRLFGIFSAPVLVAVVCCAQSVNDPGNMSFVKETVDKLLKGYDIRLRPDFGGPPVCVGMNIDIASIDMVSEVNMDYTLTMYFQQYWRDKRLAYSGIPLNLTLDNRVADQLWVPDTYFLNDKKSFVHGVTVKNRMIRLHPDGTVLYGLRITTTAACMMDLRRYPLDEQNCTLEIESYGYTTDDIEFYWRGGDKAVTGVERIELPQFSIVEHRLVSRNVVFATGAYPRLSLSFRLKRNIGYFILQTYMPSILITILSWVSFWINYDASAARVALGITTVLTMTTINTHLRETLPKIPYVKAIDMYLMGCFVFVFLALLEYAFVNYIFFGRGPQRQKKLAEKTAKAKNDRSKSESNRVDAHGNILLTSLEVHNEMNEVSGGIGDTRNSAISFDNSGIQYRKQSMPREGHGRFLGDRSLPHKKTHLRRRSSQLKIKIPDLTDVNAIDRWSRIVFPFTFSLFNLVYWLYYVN
As to the kind of experiment: Inhibition of [3H]EBOB binding to human GABA-A receptor beta3 subunit (range 1-28).

Consider `N#Cc1nn(-c2c(Cl)cc(C(F)(F)F)cc2Cl)c(N)c1[S+]([O-])C(F)(F)F` (configuration not stated) [FIPRONIL], for which the 50% inhibitory concentration (IC50) worked out at 28 nM.
In turn, `FC(F)(F)c1cc(Cl)c(-n2cc(C3(C(F)(F)F)N=N3)cn2)c(Cl)c1` yielded an IC50 of 28 nM.
